For the test, the target named is T1, thioredoxin reductase (TrxR) (Rattus norvegicus, UniProt O89049).
T1 sequence (O89049 1-499): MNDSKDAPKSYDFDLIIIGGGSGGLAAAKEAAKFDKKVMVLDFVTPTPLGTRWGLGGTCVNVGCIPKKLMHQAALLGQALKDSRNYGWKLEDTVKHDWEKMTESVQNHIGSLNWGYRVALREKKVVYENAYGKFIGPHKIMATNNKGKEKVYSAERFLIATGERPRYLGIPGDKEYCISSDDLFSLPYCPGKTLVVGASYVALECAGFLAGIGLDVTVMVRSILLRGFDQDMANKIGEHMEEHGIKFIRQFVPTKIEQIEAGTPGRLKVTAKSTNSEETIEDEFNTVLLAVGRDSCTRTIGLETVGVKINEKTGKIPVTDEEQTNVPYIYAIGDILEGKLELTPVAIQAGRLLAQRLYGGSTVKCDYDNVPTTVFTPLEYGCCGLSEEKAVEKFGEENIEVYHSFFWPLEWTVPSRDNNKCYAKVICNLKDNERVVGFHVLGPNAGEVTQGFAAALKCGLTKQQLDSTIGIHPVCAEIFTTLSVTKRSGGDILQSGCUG
Kind of test: DTNB assay with isolated TrxR, % inhibition at […]. It is filed as biochemical. To be noted: read-out: Isolated TrxR (Inhibition %).

`O=C(/C=C/c1ccc(O)cc1)c1ccc(O)cc1O` [compound 4, Isoliquiritigenin]: the inhibition (as a rule, the relative decrease from the control value, in per cent) at 50 µM was found to be 76.9%.

For `C=C1C(=O)O[C@@H]2C[C@@]3(C)CCCC(=C)[C@@H]3C[C@H]12` [compound 5, Isoalantolactone], the inhibition at 50 µM was found to be 79.7%.

These data come from publication PMC9168183 (Redox Biology, 2022).
